This note sets out measurements from patent US8450522B2, “Conformationally constrained carboxylic acid derivatives useful for treating metabolic disorders” (Amgen Inc., priority 2008, dated 2013).

Assay [1] deals with T1, GPR40 (Homo sapiens, UniProt O14842). The experiment in a line: Competition binding assay on A9 membranes expressing GPR40. Also on record: expressed in transfected cells; host or cells: membranes of A9 cells expressing GPR40. The following applies: 5 nM [3H] labeled Comparative Compound 1, 4 hours at room temperature. The method, then:
Competition binding assays were performed on A9 membranes expressing GPR40.

The target of assay [2] is T1, GPR40. Briefly: Cell-based aequorin assay (CHO cells stably transfected with GPR40 and aequorin). Also on record: expressed in transfected cells. The following applies: activation of human GPR40, CHO cells, 0.01% HSA.
In assay [3] the target is T1, GPR40. The experiment in a line: Inositol phosphate accumulation assay (A9 cell line stably transfected with GPR40). It is filed as cell-based. Also on record: expressed in transfected cells. The following applies: human GPR40, A9_GPR40 cells, 1 hour at 37° C.; read-out: IP3 EC50 (inositol phosphate assay data). The procedure: An A9 cell line stably transfected with GPR40 (A9_GPR40) was used in IP accumulation assays. A9_GPR40 cells were plated in 96-well plates containing 20,000 cells/well in DMEM containing 10% FBS. After the cells attached to the well surface, the media was replaced with inositol free DMEM containing 10% dialyzed FBS and 1 μCi, mL ^3H-inositol and incubated for 16 hours. Compounds were diluted in HBSS/10 mM LiCl containing a desired amount of HSA and added directly to cells. Following 1 hour incubation at 37° C., the media was replaced with 100 μl of 20 mM formic acid to quench the reaction. 50 μL of the extract was then added to 100 μL of SPA beads, incubated overnight, and measured on a TopCount the following day.

“Also recorded” adds a separate entry of the source.

T1 sequence (O14842 whole entry): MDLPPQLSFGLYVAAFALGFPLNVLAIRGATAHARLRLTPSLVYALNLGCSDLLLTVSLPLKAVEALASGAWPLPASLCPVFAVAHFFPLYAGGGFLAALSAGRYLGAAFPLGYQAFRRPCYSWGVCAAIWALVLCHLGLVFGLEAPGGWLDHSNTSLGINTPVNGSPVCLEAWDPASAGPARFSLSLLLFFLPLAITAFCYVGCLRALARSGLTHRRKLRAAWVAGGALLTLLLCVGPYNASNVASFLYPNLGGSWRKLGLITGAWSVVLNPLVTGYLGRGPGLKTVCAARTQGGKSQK

On to `COc1ccc(F)c(-c2ccc(COc3ccc4c(c3)[C@@H](CC(=O)O)CC4)cc2C(C)(C)C)c1` (single isomer, unassigned) [Example 1, ((1R)-6-(((2-(1,1-Dimethylethyl)-2′-fluoro-5′-(methyloxy)-1,1′-biphenyl-4-yl)methyl)oxy)-2,3-dihydro-1H-inden-1-yl)acetic acid or ((1S)-6-(((2-(1,1-Dimethylethyl)-2′-fluoro-5′-(methyloxy)-1,1′-biphenyl-4-yl)methyl)oxy)-2,3-dihydro-1H-inden-1-yl)acetic acid], for which, in assay [1], the “displacement of 3H-labeled Comparative Compound 1” value is “did not displace” and the “effect on binding of the radioligand (3H-labeled Comparative Compound 1) to the receptor” value is “enhanced the total binding; also recorded: enhanced the binding of the radioligand”. The EC50 (usually the midpoint of the concentration-response curve) in assay [2] lay within 1 to 10 µM.

As to `CC[C@]1(CC(=O)O)CCc2ccc(OCc3ccc(-c4cc(OC)ncc4F)c([C@H]4CCCC4(C)C)c3)cc21` (single isomer, unassigned) [Example 43], the half-maximal effective concentration (EC50) in assay [2] was 0.1 to 1 µM; in assay [3], 0.01 to 0.1 µM.

Turning to `CC[C@]1(CC(=O)O)CCc2ccc(OCc3ccc(-c4cc(OC)ccc4F)c([C@@H](OC)C(C)(C)C)c3)cc21` (single isomer, unassigned) [Example 44], the concentration for a half-maximal effect (EC50) in assay [2] was 0.1 to 1 µM; in assay [3], 0.01 to 0.1 µM.

Take `CC[C@]1(CC(=O)O)CCc2ccc(OCc3ccc(-c4cc(OC)ccc4F)c([C@@H](OC)C(C)(C)C)c3)cc21` (single isomer, unassigned) [Example 45]: the half-maximal effective concentration (EC50) in assay [2] and in assay [3] was 0.1 to 1 µM each time.

On to `COc1cc(-c2ccc(COc3ccc4c(c3)[C@@H](CC(=O)O)CCC4)cc2[C@H]2CCCC2(C)C)c(F)cn1` (single isomer, unassigned) [Example 46], for which the EC50 is 0.1 to 1 µM in assay [2] and 0.01 to 0.1 µM in assay [3].

As to `COc1cc(-c2ccc(COc3ccc4c(c3)[C@@](C)(CC(=O)O)CCC4)cc2[C@H]2CCCC2(C)C)c(F)cn1` (single isomer, unassigned) [Example 48], the results for the concentration giving a half-maximal response (EC50) in assay [2] and in assay [3] were 0.1 to 1 µM and 0.01 to 0.1 µM, respectively.

Consider `COc1ccc(F)c(-c2ccc(COc3ccc4c(c3)[C@H]([C@@H](C)C(=O)O)CC4)cc2C2=CCCC2(C)C)c1` [Example 14], for which the EC50 in assay [2] was in the range of 0.1 to 1 µM; in assay [3] it was 0.01 to 0.1 µM.

For the compound `COc1ccc(F)c(-c2ccc(COc3ccc4c(c3)[C@H]([C@@H](C)C(=O)O)CC4)cc2[C@H]2CCCC2(C)C)c1` [Example 15], the values for the EC50 in assay [2] and in assay [3] were 0.1 to 1 µM and 0.01 to 0.1 µM, respectively.

On to `COc1cc(-c2ccc(COc3ccc4c(c3F)C(C)(CC(=O)O)CC4)cc2C2CCCC2(C)C)c(F)cn1` [Example 40, {(S)-6-[3-((S)-2,2-Dimethyl-cyclopentyl)-4-(5-fluoro-2-methoxy-pyridin-4-yl)-benzyloxy]-7-fluoro-1-methyl-indan-1-yl}-acetic acid or stereoisomer thereof], for which the EC50 in assay [2] and in assay [3] was 0.1 to 1 µM each time.
